Measured values: patent US3991210A, “Acetamidine urinary antiseptics” (The Dow Chemical Company, priority 1975, dated 1976)

How the values were obtained:
[1] = Acute oral lethality (LD50) in mice; conditions: mouse, in vivo
Method: Separate groups of mice are separately administered an aqueous composition containing 2-(4-bromophenyl)acetamidine hydrochloride. The compound is administered per os at various dosage rates, and the animals are held for 24 hours, after which deaths are recorded, and the LD50 (dosage lethal to 50 percent of the mice) is determined.

[2] = Anorectic effect on repeated oral dosing in rats; assay type: in vivo; conditions: 100 mg/kg per day
[3] = system: Proteus mirabilis; assay: Proteus mirabilis urinary tract infection in rats, bacterial count per kidney (Example 6); assay type: in vivo; conditions: oral; for Mean Bacterial Count (number of organisms per kidney): three doses at 4, 28, 52 hours, 72 hours
Method: In a similar operation, a Proteus mirabilis urinary tract infection was established in rats using a similar surgical technique. In separate groups, the test compound 2-(4-bromophenyl)acetamidine p-toluene-sulfonate, or the reference compound nalidixic acid, were administered orally in three doses, 4, 28 and 52 hours after completion of the surgical technique used to establish the infection. Separate groups of rats were left untreated to serve as controls. After 72 hours, the animals were euthanized with carbon dioxide. The left kidney was removed, homogenized in 9 milliliters sterile saline solution, and fivefold dilutions of the resulting brei were made in brain-heart infusion broth. Bacterial counts in the dilutions were determined after 24 hours incubation at 37° C. The oral dose in milligrams per kilogram (mg/kg); millimoles per kilogram (mM); the number of animals in each group, and the base ten logarithm (Log10) of the bacterial count (number of organisms per kidney) are set out below.

[4] = Stability in comparison to the hydrochloride salt (general statement); assay type: physicochemical; conditions: versus hydrochloride salt
[5] = system: bacterial microorganisms which may infect the mammalian urinary system; assay: Urinary antiseptic activity (general statement); set-up: species or system mammals; conditions: in vivo
[6] = Toxicity / detrimental pharmacological effects (general statement); assay type: in vivo, mammals

Compound: Cc1ccc(S(=O)(=O)O)cc1.N=C(N)Cc1ccc(Br)cc1 [2-(4-bromophenyl)acetamidine p-toluene-sulfonate]
- LD50 at 24 h [1]: 2610 mg/kg
- anorectic effect, by the fourth week ([2]; by the fourth week of dosing): decreases and substantially disappears by the fourth week of dosing
- anorectic effect, first week ([2]; during the first week): an anorectic effect is observed during the first week
- Mean Bacterial Count (number of organisms per kidney) ([3]; 12.5 mg/kg): 7.49 Log10
- Mean Bacterial Count (number of organisms per kidney) ([3]; 25 mg/kg): 6.01 Log10
- Mean Bacterial Count (number of organisms per kidney) ([3]; 50 mg/kg): 4.23 Log10
- Mean Bacterial Count (number of organisms per kidney) ([3]; 100 mg/kg): 2.68 Log10
- reduction of bacterial counts relative to nalidixic acid, weight basis ([3]; equal dose of nalidixic acid on a weight basis): comparable to an equal dose of nalidixic acid, on a weight basis
- effectiveness relative to nalidixic acid, molar basis ([3]; on a molar basis): more effective, on a molar basis, than nalidixic acid
- stability in comparison to the corresponding hydrochloride salt [4]: improved
- urinary antiseptic activity [5]: high degree of urinary antiseptic activity
- toxicity ([6]; in vivo): low toxicity
- toxicity characteristics in comparison to the corresponding hydrochloride salt ([6]; versus hydrochloride salt): improved
